According to the NIST ThermoML archive (doi:10.1021/je800594e):
Numbers after ± are expanded uncertainties.

Details: for speed of sound / mass density: 101.33 kPa, Liquid; for speed of sound: Pulse-echo method; for mass density: Vibrating tube method; for surface tension liquid-gas: Drop volume

Compound COC(=O)OC [dimethyl carbonate] has a speed of sound (288.15 K) of 1240.7 ± 1.5 m/s, a mass density (288.15 K) of 1076.64 ± 0.3 kg/m3 and a speed of sound (293.15 K) of 1218.1 ± 1.5 m/s. The mass density (293.15 K) was 1070.01 ± 0.29 kg/m3, the surface tension liquid-gas (298.15 K) was 28.08 ± 0.21 mN/m and the speed of sound (298.15 K) was 1195.1 ± 1.5 m/s. The mass density (298.15 K) was 1063.39 ± 0.28 kg/m3, the speed of sound (303.15 K) was 1173.2 ± 1.5 m/s and the mass density (303.15 K) was 1056.78 ± 0.28 kg/m3. For the same compound, the speed of sound (308.15 K) was 1151.5 ± 1.5 m/s and the mass density (308.15 K) was 1050.15 ± 0.27 kg/m3.

Cc1ccc(C)cc1 [1,4-dimethylbenzene] showed a speed of sound (288.15 K) of 1350.7 ± 1.6 m/s, a mass density (288.15 K) of 865.2 ± 0.24 kg/m3 and a speed of sound (293.15 K) of 1329.6 ± 1.6 m/s. It also gave a mass density (293.15 K) of 860.9 ± 0.24 kg/m3, a surface tension liquid-gas (298.15 K) of 27.43 ± 0.2 mN/m and a speed of sound (298.15 K) of 1308.4 ± 1.5 m/s. The mass density (298.15 K) was 856.58 ± 0.24 kg/m3, the speed of sound (303.15 K) was 1287.4 ± 1.5 m/s and the mass density (303.15 K) was 852.21 ± 0.24 kg/m3. For the same compound, the speed of sound (308.15 K) was 1266.4 ± 1.5 m/s and the mass density (308.15 K) was 847.83 ± 0.24 kg/m3.

Compound CCCCCCCC [octane] has a speed of sound (288.15 K) of 1213.6 ± 1.5 m/s, a mass density (288.15 K) of 706.58 ± 0.25 kg/m3 and a speed of sound (293.15 K) of 1192.9 ± 1.5 m/s. It also gave a mass density (293.15 K) of 702.57 ± 0.25 kg/m3, a surface tension liquid-gas (298.15 K) of 20.99 ± 0.17 mN/m and a speed of sound (298.15 K) of 1171.9 ± 1.5 m/s. It also gave a mass density (298.15 K) of 698.55 ± 0.25 kg/m3, a speed of sound (303.15 K) of 1150.9 ± 1.5 m/s and a mass density (303.15 K) of 694.48 ± 0.25 kg/m3. The speed of sound (308.15 K) was 1130.3 ± 1.5 m/s and the mass density (308.15 K) was 690.42 ± 0.25 kg/m3.
